Experimental data: patent US11970494B2, “6-heteroaryloxy benzimidazoles and azabenzimidazoles as JAK2 inhibitors” (Ajax Therapeutics, Inc., priority 2021, dated 2024)

Columns and labels:
[1] = molecular target: T1, JAK2 (JH1 domain-catalytic, Y1007F,Y1008F) kinase (Homo sapiens, UniProt O60674, Y1007F/Y1008F); assay: JAK2 Binding Assay (JAK2 JH1 Domain Binding Assay); settings: JAK2 JH1 domain binding, qPCR detection; read-out: JAK2 Kd
T1 construct: made in house; host or cells: transiently transfected HEK293 cells
T1 sequence (O60674 849-1124 Y1007F/Y1008F limits assumed): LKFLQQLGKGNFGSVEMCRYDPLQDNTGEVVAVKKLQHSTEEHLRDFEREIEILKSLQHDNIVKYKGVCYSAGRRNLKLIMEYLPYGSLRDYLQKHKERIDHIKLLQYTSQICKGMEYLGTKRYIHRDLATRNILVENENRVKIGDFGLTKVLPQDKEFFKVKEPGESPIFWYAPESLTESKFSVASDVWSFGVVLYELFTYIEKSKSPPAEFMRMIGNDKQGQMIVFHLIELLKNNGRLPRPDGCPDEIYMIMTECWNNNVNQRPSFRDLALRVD

[2] = Hepatocyte Stability Assay, human hepatocytes; format: in vitro ADME; settings: cryopreserved hepatocytes, read-out: Human Heps CLint
Procedure: 10 mM stock solutions of test compound and positive control are prepared in DMSO. Stock solutions are diluted to 100 μM by combining 198 μL of 50% acetonitrile/50% water and 2 μL of 10 mM stock solution. Verapamil is used as positive control in the assay. Vials of cryopreserved hepatocytes are thawed in a 37° C. water bath with gently shaking. The contents are poured into the 50 mL thawing medium conical tube. Vials are centrifuged at 100 g for 10 minutes at room temperature. Thawing medium is aspirated and hepatocytes are re-suspended with serum-free incubation medium to yield ˜1.5×10^6 cells/mL. Cell viability and density are counted using a Trypan Blue exclusion, and then cells are diluted with serum-free incubation medium to a working cell density of 0.5×10^6 viable cells/mL. A portion of the hepatocytes at 0.5×10^6 viable cells/mL are boiled for 5 min prior to adding to the plate as negative control to eliminate the enzymatic activity so that little or no substrate turnover should be observed. Aliquots of 198 μL hepatocytes are dispensed into each well of a 96-well non-coated plate. The plate is placed in the incubator for approximately 10 minutes. Aliquots of 2 μL of the 100 μM test compound and 2 μL positive control are added into respective wells of a non-coated 96-well plate to start the reaction. The final concentration of test compound is 1 μM. This assay is performed in duplicate. The plate is incubated in the incubator for the designed time points. 25 μL of contents are transferred and mixed with 6 volumes (150 μL) of cold acetonitrile with internal standard (100 nM alprazolam, 200 nM labetalol, 200 nM caffeine and 200 nM diclofenac) to terminate the reaction at time points of 0, 15, 30, 60, 90 and 120 minutes. Samples are centrifuged for 25 minutes at 3,220 g and aliquots of 150 μL of the supernatants are used for LC-MS/MS analysis.

JAK3 = molecular target: T2, JAK3 (Homo sapiens, UniProt P52333); assay: JAK Family Selectivity Assay: JAK3 vs JAK2 binding affinity; settings: Kd JAK3 over Kd JAK2
T2 construct: made in house; host or cells: T7 phage in BL21-derived E. coli or HEK-293 cells
T2 sequence (P52333 1-1124): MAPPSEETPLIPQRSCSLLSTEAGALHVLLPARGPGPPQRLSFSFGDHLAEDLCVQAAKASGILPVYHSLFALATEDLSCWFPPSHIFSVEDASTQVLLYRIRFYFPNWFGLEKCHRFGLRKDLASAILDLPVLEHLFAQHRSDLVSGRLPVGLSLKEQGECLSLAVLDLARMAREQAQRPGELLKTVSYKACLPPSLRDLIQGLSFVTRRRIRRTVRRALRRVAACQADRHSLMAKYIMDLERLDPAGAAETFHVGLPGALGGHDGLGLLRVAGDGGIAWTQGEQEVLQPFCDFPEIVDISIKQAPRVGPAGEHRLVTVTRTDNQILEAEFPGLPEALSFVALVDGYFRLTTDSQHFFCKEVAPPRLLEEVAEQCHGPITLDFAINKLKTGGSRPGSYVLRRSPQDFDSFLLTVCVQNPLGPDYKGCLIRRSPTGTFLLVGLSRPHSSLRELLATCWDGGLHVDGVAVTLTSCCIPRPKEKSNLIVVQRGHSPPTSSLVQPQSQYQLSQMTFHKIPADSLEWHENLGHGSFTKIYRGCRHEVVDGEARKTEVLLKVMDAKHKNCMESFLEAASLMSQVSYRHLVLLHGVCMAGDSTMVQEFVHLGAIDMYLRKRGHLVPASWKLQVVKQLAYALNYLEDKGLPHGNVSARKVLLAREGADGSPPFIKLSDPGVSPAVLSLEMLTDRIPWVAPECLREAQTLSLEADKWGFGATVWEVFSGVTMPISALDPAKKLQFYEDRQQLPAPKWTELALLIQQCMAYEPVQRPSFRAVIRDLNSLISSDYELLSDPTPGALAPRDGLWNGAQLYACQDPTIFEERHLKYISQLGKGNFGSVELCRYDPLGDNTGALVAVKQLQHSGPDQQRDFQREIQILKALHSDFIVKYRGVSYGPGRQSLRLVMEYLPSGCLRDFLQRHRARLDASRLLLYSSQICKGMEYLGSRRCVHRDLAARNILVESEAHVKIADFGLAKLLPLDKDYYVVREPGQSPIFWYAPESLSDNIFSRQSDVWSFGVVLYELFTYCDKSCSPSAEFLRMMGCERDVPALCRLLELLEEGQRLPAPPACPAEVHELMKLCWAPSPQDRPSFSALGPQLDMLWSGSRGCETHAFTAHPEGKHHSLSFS
Procedure: (§1) Provided compounds are evaluated for selectivity by comparing their JAK2 binding affinity (Kd) in the above JAK2 Binding Assay with their binding affinity (Kd) for one or more other kinases. Binding affinity for other kinases is determined as follows: Kinase-tagged T7 phage strains are prepared in an E. coli host derived from the BL21 strain. E. coli are grown to log-phase and infected with T7 phage and incubated with shaking at 32° C. until lysis. The lysates are centrifuged and filtered to remove cell debris. The remaining kinases are produced in HEK-293 cells and subsequently tagged with DNA for qPCR detection. Streptavidin-coated magnetic beads are treated with biotinylated small molecule ligands for 30 minutes at room temperature to generate affinity resins for kinase assays. The liganded beads are blocked with excess biotin and washed with blocking buffer (SeaBlock (Pierce), 1% BSA, 0.05% Tween 20, 1 mM DTT) to remove unbound ligand and to reduce non-specific binding. Binding reactions are assembled by combining kinases, liganded affinity beads, and test compounds in 1× binding buffer (20% SeaBlock, 0.17×PBS, 0.05% Tween 20, 6 mM DTT). Test compounds are prepared as 111× stocks in 100% DMSO. Kds are determined using an 11-point 3-fold compound dilution series with three DMSO control points. All compounds for Kd measurements are distributed by acoustic transfer (non-contact dispensing) in 100% DMSO. The compounds are then diluted directly into the assays such that the final concentration of DMSO is 0.9%. All reactions are performed in polypropylene 384-well plate. Each has a final volume of 0.02 ml. The assay plates are incubated at room temperature with shaking for 1 hour and the affinity beads are washed with wash buffer (1×PBS, 0.05% Tween 20). The beads are then re-suspended in elution buffer (1× PBS, 0.05% Tween 20, 0.5 μM non-biotinylated affinity ligand) and incubated at room temperature with shaking for 30 minutes. The kinase concentration in the eluates is measured by qPCR. […] In some embodiments, provided compounds may be JAK2-selective over one or more of the following kinases: JAK1, JAK3, and Tyk2.

JAK1 = molecular target: T3, JAK1 (Homo sapiens, UniProt P23458); assay: JAK Family Selectivity Assay: JAK1 vs JAK2 binding affinity; settings: Kd JAK1 over Kd JAK2
T3 construct: made in house; host or cells: T7 phage in BL21-derived E. coli or HEK-293 cells
T3 sequence (P23458 whole entry): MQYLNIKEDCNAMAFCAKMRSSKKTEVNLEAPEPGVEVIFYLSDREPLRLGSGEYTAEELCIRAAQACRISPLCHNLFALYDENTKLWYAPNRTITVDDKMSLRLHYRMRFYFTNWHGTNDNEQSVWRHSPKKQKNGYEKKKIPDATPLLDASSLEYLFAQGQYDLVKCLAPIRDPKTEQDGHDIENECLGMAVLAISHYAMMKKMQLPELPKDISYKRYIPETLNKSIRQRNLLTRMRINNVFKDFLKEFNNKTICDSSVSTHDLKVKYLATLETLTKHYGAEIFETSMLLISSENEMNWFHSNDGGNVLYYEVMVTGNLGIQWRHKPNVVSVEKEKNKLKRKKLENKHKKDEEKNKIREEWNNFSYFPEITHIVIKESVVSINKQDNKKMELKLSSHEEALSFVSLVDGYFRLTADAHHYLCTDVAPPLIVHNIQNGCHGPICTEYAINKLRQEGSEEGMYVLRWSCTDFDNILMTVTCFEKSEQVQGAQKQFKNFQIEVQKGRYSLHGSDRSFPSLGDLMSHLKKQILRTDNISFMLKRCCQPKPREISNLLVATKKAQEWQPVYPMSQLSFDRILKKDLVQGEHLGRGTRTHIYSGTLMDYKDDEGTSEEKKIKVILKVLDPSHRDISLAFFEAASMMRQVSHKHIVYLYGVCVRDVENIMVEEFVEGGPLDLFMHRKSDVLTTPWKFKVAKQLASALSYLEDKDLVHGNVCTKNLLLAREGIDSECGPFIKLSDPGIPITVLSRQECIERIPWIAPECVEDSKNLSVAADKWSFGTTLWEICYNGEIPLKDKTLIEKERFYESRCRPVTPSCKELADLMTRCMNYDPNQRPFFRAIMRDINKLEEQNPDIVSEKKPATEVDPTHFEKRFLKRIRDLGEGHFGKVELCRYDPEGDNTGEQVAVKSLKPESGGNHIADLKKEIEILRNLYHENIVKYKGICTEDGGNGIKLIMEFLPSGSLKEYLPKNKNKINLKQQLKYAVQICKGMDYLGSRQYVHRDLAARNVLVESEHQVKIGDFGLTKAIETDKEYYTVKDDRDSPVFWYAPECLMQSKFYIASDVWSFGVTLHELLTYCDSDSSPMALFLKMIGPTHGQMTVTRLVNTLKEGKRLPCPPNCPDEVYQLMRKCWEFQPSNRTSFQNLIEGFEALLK
Procedure: as §1

| Kd [1] | CLint scaled at 1 μM [2] | JAK3/JAK2 Kd/Kd ratio (JAK3) | JAK1/JAK2 Kd/Kd ratio (JAK1) | SMILES |
| --- | --- | --- | --- | --- |
| < 10 nM | 6 to 12 mL/min/kg | A (Kd/Kd ratio ≥1000) | C (Kd/Kd ratio <300 and ≥100) | Cn1cc(C(F)(F)F)cc(Nc2nc3ncc(Oc4ccnc(NC(=O)O[C@@H]5CCOC5)c4)c(C#N)c3n2C)c1=O [Example I-18, (R)-Tetrahydrofuran-3-yl(4-((7-cyano-1-methyl-2-((1-methyl-2-oxo-5-(trifluoromethyl)-1,2-dihydropyridin-3-yl)amino)-1H-imidazo[4,5-b]pyridin-6-yl)oxy)pyridin-2-yl)carbamate] |
| < 10 nM | 12 to 20 mL/min/kg | A (Kd/Kd ratio ≥1000) | A (Kd/Kd ratio ≥1000) | COCC(=O)Nc1cc(Oc2cnc3nc(Nc4cc(C(F)(F)F)cn(C)c4=O)n(C)c3c2Cl)ccn1 [Example I-75, N-(4-((7-chloro-1-methyl-2-((1-methyl-2-oxo-5-(trifluoromethyl)-1,2-dihydropyridin-3-yl)amino)-1H-imidazo[4,5-b]pyridin-6-yl)oxy)pyridin-2-yl)-2-methoxyacetamide] |
| < 10 nM | 12 to 20 mL/min/kg | A (Kd/Kd ratio ≥1000) | B (Kd/Kd ratio <1000 and ≥300) | CC(=O)Nc1cc(Oc2cnc3nc(Nc4cc(C(F)(F)F)cn(C)c4=O)n(C)c3c2Cl)c(F)cn1 [Example I-88, N-(4-((7-chloro-1-methyl-2-((1-methyl-2-oxo-5-(trifluoromethyl)-1,2-dihydropyridin-3-yl)amino)-1H-imidazo[4,5-b]pyridin-6-yl)oxy)-5-fluoropyridin-2-yl)acetamide] |
| < 10 nM | 12 to 20 mL/min/kg | B (Kd/Kd ratio <1000 and ≥300) | D (Kd/Kd ratio <100) | Cn1c(Nc2cc3n(n2)CCC32CCC2)nc2ncc(Oc3ccnc(NC(=O)C4CC4)c3)c(C#N)c21 [Example I-122, N-(4-((7-cyano-2-((5′,6′-dihydrospiro[cyclobutane-1,4′-pyrrolo[1,2-b]pyrazol]-2′-yl)amino)-1-methyl-1H-imidazo[4,5-b]pyridin-6-yl)oxy)pyridin-2-yl)cyclopropanecarboxamide] |
| < 10 nM | 12 to 20 mL/min/kg | A (Kd/Kd ratio ≥1000) | C (Kd/Kd ratio <300 and ≥100) | CCN1CCN(Cc2ccc(Nc3nc4ccc(Oc5ccnc(NC(C)=O)c5)cc4n3C)cc2C(F)(F)F)CC1 [Example R-1, reference compound] |

| SMILES | Kd [1] | CLint scaled at 1 μM [2] | JAK3/JAK2 Kd/Kd ratio (JAK3) | JAK1/JAK2 Kd/Kd ratio (JAK1) |
| --- | --- | --- | --- | --- |
| CO[C@@H]1CCN(C(=O)Nc2cc(Oc3cnc4nc(Nc5cc6n(n5)CCC65CCC5)n(C)c4c3C#N)ccn2)C1 [Example I-60, (R)-N-(4-((7-cyano-2-((5′,6′-dihydrospiro[cyclobutane-1,4′-pyrrolo[1,2-b]pyrazol]-2′-yl)amino)-1-methyl-1H-imidazo[4,5-b]pyridin-6-yl)oxy)pyridin-2-yl)-3-methoxypyrrolidine-1-carboxamide] | < 10 nM | 6 to 12 mL/min/kg | B (Kd/Kd ratio <1000 and ≥300) | B (Kd/Kd ratio <1000 and ≥300) |
| COC1CN(C(=O)Nc2cc(Oc3cnc4nc(Nc5cc6n(n5)CCC65CCC5)n(C)c4c3C#N)ccn2)C1 [Example I-61, N-(4-((7-cyano-2-((5′,6′-dihydrospiro[cyclobutane-1,4′-pyrrolo[1,2-b]pyrazol]-2′-yl)amino)-1-methyl-1H-imidazo[4,5-b]pyridin-6-yl)oxy)pyridin-2-yl)-3-methoxyazetidine carboxamide] | < 10 nM | ≤ 6 mL/min/kg | A (Kd/Kd ratio ≥1000) | A (Kd/Kd ratio ≥1000) |
| COCCOC(=O)Nc1cc(Oc2cnc3nc(Nc4cc5n(n4)CCC54CCC4)n(C)c3c2C#N)ccn1 [Example I-62, 2-methoxyethyl(4-((7-cyano-2-((5′,6′-dihydrospiro[cyclobutane-1,4′-pyrrolo[1,2-b]pyrazol]-2′-yl)amino)-1-methyl-1H-imidazo[4,5-b]pyridin-6-yl)oxy)pyridin-2-yl)carbamate] | < 10 nM | 6 to 12 mL/min/kg | A (Kd/Kd ratio ≥1000) | B (Kd/Kd ratio <1000 and ≥300) |
| COCC(=O)Nc1cc(Oc2cnc3nc(Nc4cc(C(F)(F)F)cn(C)c4=O)n(C)c3c2C#N)ccn1 [Example I-79, N-(4-((7-cyano-1-methyl-2-((1-methyl-2-oxo-5-(trifluoromethyl)-1,2-dihydropyridin-3-yl)amino)-1H-imidazo[4,5-b]pyridin-6-yl)oxy)pyridin-2-yl)-2-methoxyacetamide] | < 10 nM | 12 to 20 mL/min/kg | A (Kd/Kd ratio ≥1000) | C (Kd/Kd ratio <300 and ≥100) |
